According to paper PMC8212709 (Clinical and Translational Science, 2021):

Assay: Phase I SRD/MRD safety and tolerability
Assay type: in vivo, human (healthy subjects)
[1] = SRD single dose 17.5 mg (n = 6)

C=CC(=O)N1CC[C@H](Oc2nc(-c3n[nH]c(=O)[nH]3)cc3ccccc23)C1 [TAK‐020]
11 (30.6) n (%): TEAEs (MRD Overall TAK‐020 (N = 36)) | TEAEs, Mild (MRD Overall TAK‐020 (N = 36))
No subject: clinical laboratory test results (including liver function tests), vital sign findings, cytopenias, or ECG results reported as a TEAE (SRD and MRD parts)
3 (50.00) n (%): TEAEs (MRD 13 mg q.d. (n = 6))
4 (11.1) n (%): TEAEs, Related (MRD Overall TAK‐020 (N = 36))
3 (5.6) n (%): TEAEs, Not related (SRD Overall TAK‐020 (N = 54)) | TEAEs, Related (SRD Overall TAK‐020 (N = 54))
2 (33.3) n (%): TEAEs, Related (MRD 5.75 mg q.d. (n = 6)) | TEAEs, Not related (MRD 13 mg q.d. (n = 6)) | TEAEs (MRD 25 mg q.d. (n = 6)) | TEAEs, Mild (MRD 25 mg q.d. (n = 6)) | TEAEs, Not related (MRD 25 mg q.d. (n = 6)) | TEAEs, Not related (SRD single dose 70 mg (n = 6))
6 (11.1) n (%): TEAEs (SRD Overall TAK‐020 (N = 54)) | TEAEs, Mild (SRD Overall TAK‐020 (N = 54))
3 (50.0) n (%): TEAEs (MRD 5.75 mg q.d. (n = 6)) | TEAEs, Mild (MRD 5.75 mg q.d. (n = 6)) | TEAEs, Mild (MRD 13 mg q.d. (n = 6)) | TEAEs (SRD single dose 70 mg (n = 6)) | TEAEs, Mild (SRD single dose 70 mg (n = 6))
30.6%: percentage of subjects who had TEAEs (MRD, overall TAK‐020 group)
11.1%: subjects with study treatment‐related TEAEs (MRD, overall TAK‐020 group (four subjects)) | percentage of subjects who experienced TEAEs (SRD, overall TAK‐020 group)
0 n (%): Deaths (MRD 3.75 mg q.d. (n = 6)) | Serious TEAEs (MRD 3.75 mg q.d. (n = 6)) | Serious TEAEs, Not related (MRD 3.75 mg q.d. (n = 6)) | Serious TEAEs, Related (MRD 3.75 mg q.d. (n = 6)) | TEAEs Leading to DC (MRD 3.75 mg q.d. (n = 6)) | TEAEs, Moderate (MRD 3.75 mg q.d. (n = 6)) | TEAEs, Not related (MRD 3.75 mg q.d. (n = 6)) | TEAEs, Severe (MRD 3.75 mg q.d. (n = 6)) | Deaths (MRD 5.75 mg q.d. (n = 6)) | Serious TEAEs (MRD 5.75 mg q.d. (n = 6)) | Serious TEAEs, Not related (MRD 5.75 mg q.d. (n = 6)) | Serious TEAEs, Related (MRD 5.75 mg q.d. (n = 6)) | TEAEs Leading to DC (MRD 5.75 mg q.d. (n = 6)) | TEAEs, Moderate (MRD 5.75 mg q.d. (n = 6)) | TEAEs, Severe (MRD 5.75 mg q.d. (n = 6)) | Deaths (MRD 13 mg q.d. (n = 6)) | Serious TEAEs (MRD 13 mg q.d. (n = 6)) | Serious TEAEs, Not related (MRD 13 mg q.d. (n = 6)) | Serious TEAEs, Related (MRD 13 mg q.d. (n = 6)) | TEAEs Leading to DC (MRD 13 mg q.d. (n = 6)) | TEAEs, Moderate (MRD 13 mg q.d. (n = 6)) | TEAEs, Severe (MRD 13 mg q.d. (n = 6)) | Deaths (MRD 25 mg q.d. (n = 6)) | Serious TEAEs (MRD 25 mg q.d. (n = 6)) | Serious TEAEs, Not related (MRD 25 mg q.d. (n = 6)) | Serious TEAEs, Related (MRD 25 mg q.d. (n = 6)) | TEAEs Leading to DC (MRD 25 mg q.d. (n = 6)) | TEAEs, Moderate (MRD 25 mg q.d. (n = 6)) | TEAEs, Related (MRD 25 mg q.d. (n = 6)) | TEAEs, Severe (MRD 25 mg q.d. (n = 6)) | Deaths (MRD 45 mg q.d. (n = 6)) | Serious TEAEs (MRD 45 mg q.d. (n = 6)) | Serious TEAEs, Not related (MRD 45 mg q.d. (n = 6)) | Serious TEAEs, Related (MRD 45 mg q.d. (n = 6)) | TEAEs Leading to DC (MRD 45 mg q.d. (n = 6)) | TEAEs, Moderate (MRD 45 mg q.d. (n = 6)) | TEAEs, Related (MRD 45 mg q.d. (n = 6)) | TEAEs, Severe (MRD 45 mg q.d. (n = 6)) | Deaths (MRD 60 mg q.d. (n = 6)) | Serious TEAEs (MRD 60 mg q.d. (n = 6)) | Serious TEAEs, Not related (MRD 60 mg q.d. (n = 6)) | Serious TEAEs, Related (MRD 60 mg q.d. (n = 6)) | TEAEs Leading to DC (MRD 60 mg q.d. (n = 6)) | TEAEs, Moderate (MRD 60 mg q.d. (n = 6)) | TEAEs, Related (MRD 60 mg q.d. (n = 6)) | TEAEs, Severe (MRD 60 mg q.d. (n = 6)) | Deaths (MRD Overall TAK‐020 (N = 36)) | Serious TEAEs (MRD Overall TAK‐020 (N = 36)) | Serious TEAEs, Not related (MRD Overall TAK‐020 (N = 36)) | Serious TEAEs, Related (MRD Overall TAK‐020 (N = 36)) | TEAEs Leading to DC (MRD Overall TAK‐020 (N = 36)) | TEAEs, Moderate (MRD Overall TAK‐020 (N = 36)) | TEAEs, Severe (MRD Overall TAK‐020 (N = 36)) | Deaths (SRD Overall TAK‐020 (N = 54)) | Serious TEAEs (SRD Overall TAK‐020 (N = 54)) | Serious TEAEs, Not related (SRD Overall TAK‐020 (N = 54)) | Serious TEAEs, Related (SRD Overall TAK‐020 (N = 54)) | TEAEs Leading to DC (SRD Overall TAK‐020 (N = 54)) | TEAEs, Moderate (SRD Overall TAK‐020 (N = 54)) | TEAEs, Severe (SRD Overall TAK‐020 (N = 54)) | Deaths (SRD single dose 0.1 mg (n = 6)) | Serious TEAEs (SRD single dose 0.1 mg (n = 6)) | Serious TEAEs, Not related (SRD single dose 0.1 mg (n = 6)) | Serious TEAEs, Related (SRD single dose 0.1 mg (n = 6)) | TEAEs (SRD single dose 0.1 mg (n = 6)) | TEAEs Leading to DC (SRD single dose 0.1 mg (n = 6)) | TEAEs, Mild (SRD single dose 0.1 mg (n = 6)) | TEAEs, Moderate (SRD single dose 0.1 mg (n = 6)) | TEAEs, Not related (SRD single dose 0.1 mg (n = 6)) | TEAEs, Related (SRD single dose 0.1 mg (n = 6)) | TEAEs, Severe (SRD single dose 0.1 mg (n = 6)) | Deaths (SRD single dose 0.5 mg (n = 6)) | Serious TEAEs (SRD single dose 0.5 mg (n = 6)) | Serious TEAEs, Not related (SRD single dose 0.5 mg (n = 6)) | Serious TEAEs, Related (SRD single dose 0.5 mg (n = 6)) | TEAEs (SRD single dose 0.5 mg (n = 6)) | TEAEs Leading to DC (SRD single dose 0.5 mg (n = 6)) | TEAEs, Mild (SRD single dose 0.5 mg (n = 6)) | TEAEs, Moderate (SRD single dose 0.5 mg (n = 6)) | TEAEs, Not related (SRD single dose 0.5 mg (n = 6)) | TEAEs, Related (SRD single dose 0.5 mg (n = 6)) | TEAEs, Severe (SRD single dose 0.5 mg (n = 6)) | Deaths (SRD single dose 2.5 mg (n = 6)) | Serious TEAEs (SRD single dose 2.5 mg (n = 6)) | Serious TEAEs, Not related (SRD single dose 2.5 mg (n = 6)) | Serious TEAEs, Related (SRD single dose 2.5 mg (n = 6)) | TEAEs Leading to DC (SRD single dose 2.5 mg (n = 6)) | TEAEs, Moderate (SRD single dose 2.5 mg (n = 6)) | TEAEs, Not related (SRD single dose 2.5 mg (n = 6)) | TEAEs, Severe (SRD single dose 2.5 mg (n = 6)) | Deaths (SRD single dose 4.4 mg (n = 6)) | Serious TEAEs (SRD single dose 4.4 mg (n = 6)) | Serious TEAEs, Not related (SRD single dose 4.4 mg (n = 6)) | Serious TEAEs, Related (SRD single dose 4.4 mg (n = 6)) | TEAEs (SRD single dose 4.4 mg (n = 6)) | TEAEs Leading to DC (SRD single dose 4.4 mg (n = 6)) | TEAEs, Mild (SRD single dose 4.4 mg (n = 6)) | TEAEs, Moderate (SRD single dose 4.4 mg (n = 6)) | TEAEs, Not related (SRD single dose 4.4 mg (n = 6)) | TEAEs, Related (SRD single dose 4.4 mg (n = 6)) | TEAEs, Severe (SRD single dose 4.4 mg (n = 6)) | Deaths (SRD single dose 8.8 mg (n = 6)) | Serious TEAEs (SRD single dose 8.8 mg (n = 6)) | Serious TEAEs, Not related (SRD single dose 8.8 mg (n = 6)) | Serious TEAEs, Related (SRD single dose 8.8 mg (n = 6)) | TEAEs Leading to DC (SRD single dose 8.8 mg (n = 6)) | TEAEs, Moderate (SRD single dose 8.8 mg (n = 6)) | TEAEs, Not related (SRD single dose 8.8 mg (n = 6)) | TEAEs, Severe (SRD single dose 8.8 mg (n = 6)) | Deaths [1] | Serious TEAEs [1] | Serious TEAEs, Not related [1] | Serious TEAEs, Related [1] | TEAEs [1] | TEAEs Leading to DC [1] | TEAEs, Mild [1] | TEAEs, Moderate [1] | TEAEs, Not related [1] | TEAEs, Related [1] | TEAEs, Severe [1] | Deaths (SRD single dose 35 mg (n = 6)) | Serious TEAEs (SRD single dose 35 mg (n = 6)) | Serious TEAEs, Not related (SRD single dose 35 mg (n = 6)) | Serious TEAEs, Related (SRD single dose 35 mg (n = 6)) | TEAEs (SRD single dose 35 mg (n = 6)) | TEAEs Leading to DC (SRD single dose 35 mg (n = 6)) | TEAEs, Mild (SRD single dose 35 mg (n = 6)) | TEAEs, Moderate (SRD single dose 35 mg (n = 6)) | TEAEs, Not related (SRD single dose 35 mg (n = 6)) | TEAEs, Related (SRD single dose 35 mg (n = 6)) | TEAEs, Severe (SRD single dose 35 mg (n = 6)) | Deaths (SRD single dose 70 mg (n = 6)) | Serious TEAEs (SRD single dose 70 mg (n = 6)) | Serious TEAEs, Not related (SRD single dose 70 mg (n = 6)) | Serious TEAEs, Related (SRD single dose 70 mg (n = 6)) | TEAEs Leading to DC (SRD single dose 70 mg (n = 6)) | TEAEs, Moderate (SRD single dose 70 mg (n = 6)) | TEAEs, Severe (SRD single dose 70 mg (n = 6)) | Deaths (SRD single dose 105 mg (n = 6)) | Serious TEAEs (SRD single dose 105 mg (n = 6)) | Serious TEAEs, Not related (SRD single dose 105 mg (n = 6)) | Serious TEAEs, Related (SRD single dose 105 mg (n = 6)) | TEAEs Leading to DC (SRD single dose 105 mg (n = 6)) | TEAEs, Moderate (SRD single dose 105 mg (n = 6)) | TEAEs, Related (SRD single dose 105 mg (n = 6)) | TEAEs, Severe (SRD single dose 105 mg (n = 6))
7 (19.4) n (%): TEAEs, Not related (MRD Overall TAK‐020 (N = 36))
1 (16.7) n (%): TEAEs (MRD 3.75 mg q.d. (n = 6)) | TEAEs, Mild (MRD 3.75 mg q.d. (n = 6)) | TEAEs, Related (MRD 3.75 mg q.d. (n = 6)) | TEAEs, Not related (MRD 5.75 mg q.d. (n = 6)) | TEAEs, Related (MRD 13 mg q.d. (n = 6)) | TEAEs (MRD 45 mg q.d. (n = 6)) | TEAEs, Mild (MRD 45 mg q.d. (n = 6)) | TEAEs, Not related (MRD 45 mg q.d. (n = 6)) | TEAEs (MRD 60 mg q.d. (n = 6)) | TEAEs, Mild (MRD 60 mg q.d. (n = 6)) | TEAEs, Not related (MRD 60 mg q.d. (n = 6)) | TEAEs (SRD single dose 2.5 mg (n = 6)) | TEAEs, Mild (SRD single dose 2.5 mg (n = 6)) | TEAEs, Related (SRD single dose 2.5 mg (n = 6)) | TEAEs (SRD single dose 8.8 mg (n = 6)) | TEAEs, Mild (SRD single dose 8.8 mg (n = 6)) | TEAEs, Related (SRD single dose 8.8 mg (n = 6)) | TEAEs, Related (SRD single dose 70 mg (n = 6)) | TEAEs (SRD single dose 105 mg (n = 6)) | TEAEs, Mild (SRD single dose 105 mg (n = 6)) | TEAEs, Not related (SRD single dose 105 mg (n = 6))
